A short description of data set [1]: Determination of oral bioavailability by urinary recovery as parent compound. The settings on record: gavage, 50 mg/kg; urine collected for 24 and 48 hours post-dose.
Description: Long Evans Rats were administered the compound to be tested by gavage at a dose of 50 mg/kg. The urine was collected for 24 and 48 hours post-dose, ultrafiltered, and analysed by reverse-phase high-pressure liquid chromatography. The oral bioavailability of the compound was expressed as the percent of the dose excreted in the urine as the parent unesterified compound.
Data set [2] concerns Varicella Zoster Virus (VZV). Nature of the data set: VZV plaque reduction assay in monolayers of MRC5 cells. The format is cell-based. The note with it: MRC5 cells (human embryonic lung), read-out: ID₅₀(µm) VZV. The method, then: Varicella Zoster Virus (VZV) is assayed in monolayers of MRC5 cells (human embryonic lung) in multiwell trays. Activity of compounds is determined in the plaque reduction assay, in which a cell monolayer is infected with a suspension of VZV. A range of concentrations of the compound to be tested (of known molarity) is then incorporated into the cell monolayer. Plaque numbers of each concentration are expressed as percentage of the control and a dose-response curve is drawn. From this curve the 50% inhibitory concentration (IC₅₀) is estimated.
On the technique in general: Plaque reduction counts the foci of infection that form in a cell layer.

For another data set, the system named is Vero cells. Nature of the data set: Cell toxicity, cell growth inhibition assay (MTT uptake). In kind it is cell-based. The settings on record: 50% inhibition of cell viability at 96 hours. Here is the method:
Cell toxicity is assessed in cell growth inhibition assay. Subconfluent cultures of Vero cells grown on 96-well microtiter dishes are exposed to different dilutions of drug, and cell viability determined daily on replicate cultures using uptake of a tetrazolium dye (MTT). The concentration required for a 50% inhibition of cell vaibility at 96 hours is termed CCID₅₀.

pIC50: −log10 of the molar value. Some results are limits rather than exact numbers.

In the case of `CC#Cc1cn([C@@H]2O[C@H](COC(=O)C(C)C)[C@@H](O)[C@@H]2O)c(=O)[nH]c1=O` [Example 1, 1-(5-0-Isobutyryl-β-D-arabinofuranosyl)-5-prop-1-ynyluracil], the “Urinary Recovery (% of dose) as parent compound” value in data set [1] is 40.35 % of dose.
On to `CC#Cc1cn([C@@H]2O[C@H](COC(=O)[C@@H](N)C(C)C)[C@@H](O)[C@@H]2O)c(=O)[nH]c1=O` [Example 20, 5-Prop-1-ynyl-1-(5-0-L-valyl-β-D-arabinofuranosyl)uracil], for which the pIC50 in data set [2] is greater than 6.00. In data set [1], the “Urinary Recovery (% of dose) as parent compound” value is given as 35.90 % of dose. Moreover, in the data set on Vero cells, the CCID₅₀ is greater than 500.

The values are drawn from patent publication EP0346108A2, “Anti-infective nucleosides” (THE WELLCOME FOUNDATION LIMITED, priority 1988, dated 1989).
